29 compounds from US9309242B2, “Substituted pyrido[2,3-b]pyrazines as FGFR kinase inhibitors” (priority 2011, dated 2016) can be followed below.

Type in all cases: cell-based
Assay [1] deals with T1, Ba/F3-FGFR3-transfected cells (Homo sapiens, UniProt P22607).
T1 construct: BAF3-FGFR3 (MIN IL3) pIC50; other: minus IL3
Nature of the assay: Ba/F3-FGFR3 (minus IL3) cellular proliferation assay, Alamar Blue. An outline of the steps: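 With or without 10 ng/ml murine IL3, FGFR3-dependent Ba/F3 cells were treated 24 h with compound, then viability was gauged by Alamar Blue fluorescence after 4 h (ex 540/em 590 nm).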
For orientation: Alamar Blue is a resazurin reagent that responds to reducing activity.

Assay [2] has as its target T2, Ba/F3-FGFR1-transfected cells (Homo sapiens, UniProt P11362).
T2 construct: BAF3-FGFR1 (MIN IL3) pIC50; other: minus IL3
Put plainly: Ba/F3-FGFR1 (minus IL3) cellular proliferation assay, Alamar Blue. An outline of the steps: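 Viability of transfected Ba/F3-FGFR1 cells (20000 per well, RPMI-1640 with 10% FBS and 2 mM L-glutamine) was scored by resazurin-based Alamar Blue reduction over 4 h, after 24 h treatment with compound at 37 °C under 5% CO2.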

Assay [3] concerns Ba/F3-KDR-transfected cells. Nature of the assay: Ba/F3-KDR (plus IL3) cellular proliferation assay, counterscreen with 10 ng/ml murine IL3. The settings on record: plus IL3 (10 ng/ml murine IL3, counterscreen); read-out: BAF3-KDR (PLUS IL3) pIC50 (converted). A digest of the protocol: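 Read-out: resazurin-based Alamar Blue fluorescence (ex. 540, em. 590 nm) after 4 h. Before that, cells were incubated with compound for 24 h at 37° C. The counterscreen ran identically but with IL3 supplemented.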
In general terms: The purpose of a counterscreen is to sort out artefacts and off-target activity.

T1 sequence (P22607 whole entry, change not shown): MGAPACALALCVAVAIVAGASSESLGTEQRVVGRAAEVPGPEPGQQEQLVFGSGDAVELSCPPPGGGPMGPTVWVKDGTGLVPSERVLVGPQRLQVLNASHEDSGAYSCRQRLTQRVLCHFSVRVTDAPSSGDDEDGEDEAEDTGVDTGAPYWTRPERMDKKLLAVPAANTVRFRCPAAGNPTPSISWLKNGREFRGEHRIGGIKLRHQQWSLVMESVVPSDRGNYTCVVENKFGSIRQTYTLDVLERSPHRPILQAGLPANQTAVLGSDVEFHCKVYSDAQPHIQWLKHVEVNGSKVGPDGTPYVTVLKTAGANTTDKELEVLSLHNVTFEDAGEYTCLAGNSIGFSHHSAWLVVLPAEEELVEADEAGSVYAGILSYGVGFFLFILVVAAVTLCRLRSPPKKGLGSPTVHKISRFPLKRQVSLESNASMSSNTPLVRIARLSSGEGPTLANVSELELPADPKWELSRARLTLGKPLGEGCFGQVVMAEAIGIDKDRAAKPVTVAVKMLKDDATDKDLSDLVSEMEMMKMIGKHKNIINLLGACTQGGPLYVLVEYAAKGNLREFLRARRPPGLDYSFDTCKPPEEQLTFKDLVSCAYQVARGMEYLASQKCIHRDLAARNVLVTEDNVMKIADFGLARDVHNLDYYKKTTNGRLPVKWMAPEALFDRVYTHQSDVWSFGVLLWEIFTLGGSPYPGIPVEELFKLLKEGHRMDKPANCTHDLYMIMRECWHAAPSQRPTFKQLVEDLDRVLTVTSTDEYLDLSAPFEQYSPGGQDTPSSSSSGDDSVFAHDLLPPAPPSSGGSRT
T2 sequence (P11362 whole entry, change not shown): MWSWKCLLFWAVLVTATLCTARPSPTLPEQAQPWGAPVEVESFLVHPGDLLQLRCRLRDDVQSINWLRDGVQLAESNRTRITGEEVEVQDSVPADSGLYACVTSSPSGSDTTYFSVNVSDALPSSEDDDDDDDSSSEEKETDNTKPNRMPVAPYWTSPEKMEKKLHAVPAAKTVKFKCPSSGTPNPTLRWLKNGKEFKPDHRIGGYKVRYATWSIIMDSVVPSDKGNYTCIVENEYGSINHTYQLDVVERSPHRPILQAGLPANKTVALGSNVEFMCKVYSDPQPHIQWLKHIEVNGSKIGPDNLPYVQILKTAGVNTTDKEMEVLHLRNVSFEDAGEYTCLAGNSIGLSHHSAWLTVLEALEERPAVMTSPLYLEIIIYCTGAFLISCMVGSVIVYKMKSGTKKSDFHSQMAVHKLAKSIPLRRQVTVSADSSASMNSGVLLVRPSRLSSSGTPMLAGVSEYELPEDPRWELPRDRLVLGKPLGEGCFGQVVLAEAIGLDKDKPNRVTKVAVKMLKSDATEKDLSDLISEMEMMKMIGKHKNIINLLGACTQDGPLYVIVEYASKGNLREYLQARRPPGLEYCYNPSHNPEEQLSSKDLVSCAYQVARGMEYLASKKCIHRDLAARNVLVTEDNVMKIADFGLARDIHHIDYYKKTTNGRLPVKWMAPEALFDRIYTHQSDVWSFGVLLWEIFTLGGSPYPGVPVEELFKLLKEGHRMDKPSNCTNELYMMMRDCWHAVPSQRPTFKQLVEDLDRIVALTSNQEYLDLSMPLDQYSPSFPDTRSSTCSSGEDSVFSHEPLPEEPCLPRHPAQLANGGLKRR

In the case of `COc1cc(OC)c(F)c(N(CC2CC2)c2ccc3ncc(-c4cnn(C)c4)nc3n2)c1F` (single isomer, unassigned) [Compound 268], the “BAF3-FGFR3 (MIN IL3) pIC50” value in assay [1] worked out at 7.74. In addition, the “BAF3-FGFR1 (MIN IL3) pIC50” value in assay [2] worked out at 7.44. Also, the IC50 in assay [3] is greater than 10 µM.

For the compound `COc1cc(OC)c(F)c(N(CC(O)c2cnn(C)c2)c2ccc3ncc(-c4cnn(C)c4)nc3n2)c1` (stereo not drawn) [Compound 244], the “BAF3-FGFR3 (MIN IL3) pIC50” value in assay [1] came out at 6.73. Also, the “BAF3-FGFR1 (MIN IL3) pIC50” value in assay [2] is listed as 6.76. Further, the IC50 in assay [3] was greater than 10 µM.

With `COc1cc(OC)c(F)c(N(CC(C)(C)O)c2ccc3ncc(-c4cnn(C)c4)nc3n2)c1` [Compound 245], in assay [1], the “BAF3-FGFR3 (MIN IL3) pIC50” value is listed as 7.07. In assay [2], the “BAF3-FGFR1 (MIN IL3) pIC50” value was found to be 6.86. Moreover, the IC50 in assay [3] was greater than 10 µM.

For `COc1cc(/N=c2\ccc3ncc(-c4cnn(C)c4)nc3n2CC(C)(C)O)c(F)c(OC)c1` [Compound 246], the “BAF3-FGFR3 (MIN IL3) pIC50” value in assay [1] is 7.53. The “BAF3-FGFR1 (MIN IL3) pIC50” value in assay [2] worked out at 7.25. Further, in assay [3], the IC50 was greater than 10 µM.

In the case of `COc1cc(/N=c2\ccc3ncc(-c4cnn(C)c4)nc3n2CC2CCC(=O)N2CCO)c(F)c(OC)c1` (stereo not drawn) [Compound 247], the “BAF3-FGFR3 (MIN IL3) pIC50” value in assay [1] was roughly 7.7. Further, in assay [2], the “BAF3-FGFR1 (MIN IL3) pIC50” value was 7.51. Moreover, the IC50 in assay [3] was greater than 10 µM.

As to `COc1cc(OC)c(F)c(N(CC(=O)NC(C)C)c2ccc3ncc(-c4cnn(C)c4)nc3n2)c1` [Compound 249], the “BAF3-FGFR3 (MIN IL3) pIC50” value in assay [1] was found to be 6.83. Also, the “BAF3-FGFR1 (MIN IL3) pIC50” value in assay [2] is listed as 6.70. In assay [3], the IC50 was greater than 10 µM.

Consider `COc1cc(OC)cc(N(CC(O)COC(C)C)c2ccc3ncc(-c4cnn(CC(O)COC(C)C)c4)nc3n2)c1` (stereo not drawn) [Compound 250], for which the “BAF3-FGFR3 (MIN IL3) pIC50” value in assay [1] is roughly 7.09. Moreover, the “BAF3-FGFR1 (MIN IL3) pIC50” value in assay [2] is recorded as 6.45. The IC50 in assay [3] is greater than 10 µM.

Turning to `COc1cc(OC)cc(N(Cc2c[nH]nn2)c2ccc3ncc(-c4cnn(C)c4)nc3n2)c1` [Compound 251], in assay [1], the “BAF3-FGFR3 (MIN IL3) pIC50” value is reported as roughly 7.6. In addition, the “BAF3-FGFR1 (MIN IL3) pIC50” value in assay [2] came to 6.99. For the same compound, the IC50 in assay [3] was greater than 10 µM.

As for `COc1cc(OC)c(F)c(N(Cc2ncc[nH]2)c2ccc3ncc(-c4cnn(C5COC5)c4)nc3n2)c1` [Compound 253], the “BAF3-FGFR3 (MIN IL3) pIC50” value in assay [1] was roughly 8.63. Also, the “BAF3-FGFR1 (MIN IL3) pIC50” value in assay [2] came to 8.61. Further, the IC50 in assay [3] is greater than 10 µM.

Regarding `CCn1/c(=N/c2c(F)c(OC)cc(OC)c2F)ccc2ncc(-c3cnn(C)c3)nc21` [Compound 257], in assay [1], the “BAF3-FGFR3 (MIN IL3) pIC50” value is roughly 8.66. Moreover, the “BAF3-FGFR1 (MIN IL3) pIC50” value in assay [2] was determined as 8.58. In addition, the IC50 in assay [3] is greater than 10 µM.

On to `COc1cc(OC)c(F)c(N(Cc2c[nH]nn2)c2ccc3ncc(-c4cnn(C)c4)nc3n2)c1` [Compound 258], for which, in assay [1], the “BAF3-FGFR3 (MIN IL3) pIC50” value is recorded as 7.91. Moreover, the “BAF3-FGFR1 (MIN IL3) pIC50” value in assay [2] was 7.38. The IC50 in assay [3] was greater than 10 µM.

In the case of `COc1cc(OC)c(F)c(N(Cc2ncc[nH]2)c2ccc3ncc(N4C[C@@H](C)N[C@@H](C)C4)nc3n2)c1` [Compound 259], in assay [1], the “BAF3-FGFR3 (MIN IL3) pIC50” value was found to be 7.18. The “BAF3-FGFR1 (MIN IL3) pIC50” value in assay [2] was determined as 7.33. The IC50 in assay [3] is greater than 10 µM.

Consider `COc1cc(OC)c(F)c(N(CC(=O)N2CCNCC2)c2ccc3ncc(-c4cnn(C)c4)nc3n2)c1` [Compound 262], for which the “BAF3-FGFR3 (MIN IL3) pIC50” value in assay [1] was roughly 6.17. In addition, the “BAF3-FGFR1 (MIN IL3) pIC50” value in assay [2] is listed as 6.51. Besides, in assay [3], the IC50 was greater than 10 µM.

Take `COc1cc(OC)c(F)c(N(Cc2ncc[nH]2)c2ccc3ncc(-c4cnn(CCS(C)(=O)=O)c4)nc3n2)c1` [Compound 264]: the “BAF3-FGFR3 (MIN IL3) pIC50” value in assay [1] is listed as 8.09. In addition, the “BAF3-FGFR1 (MIN IL3) pIC50” value in assay [2] was determined as 7.66. In assay [3], the IC50 is greater than 10 µM.

`COc1cc(OC)c(F)c(N(CC2CC(O)C(=O)N2)c2ccc3ncc(-c4cnn(C)c4)nc3n2)c1` (stereo not drawn) [Compound 269]: the “BAF3-FGFR3 (MIN IL3) pIC50” value in assay [1] is given as roughly 7.1. The “BAF3-FGFR1 (MIN IL3) pIC50” value in assay [2] is listed as 6.72. In addition, the IC50 in assay [3] was greater than 10 µM.

For the compound `COc1cc(/N=c2\ccc3ncc(-c4cnn(C)c4)nc3n2CC2CC(O)C(=O)N2)c(F)c(OC)c1` (stereo not drawn) [Compound 270], in assay [1], the “BAF3-FGFR3 (MIN IL3) pIC50” value is 7.00. Moreover, the “BAF3-FGFR1 (MIN IL3) pIC50” value in assay [2] is on record as 7.12. Also, in assay [3], the IC50 is greater than 10 µM.

`COc1cc(OC)cc(N(CC2CC(O)C(=O)N2)c2ccc3ncc(-c4cnn(C)c4)nc3n2)c1` (stereo not drawn) [Compound 271]: the “BAF3-FGFR3 (MIN IL3) pIC50” value in assay [1] is 6.27. Further, the “BAF3-FGFR1 (MIN IL3) pIC50” value in assay [2] is recorded as 6.02. Besides, the IC50 in assay [3] was greater than 10 µM.

`COc1cc(/N=c2\ccc3ncc(-c4cnn(C)c4)nc3n2CC2CC(O)C(=O)N2)cc(OC)c1` (stereo not drawn) [Compound 272]: in assay [1], the “BAF3-FGFR3 (MIN IL3) pIC50” value worked out at 6.73. Moreover, the “BAF3-FGFR1 (MIN IL3) pIC50” value in assay [2] stood at 6.54. Moreover, the IC50 in assay [3] was greater than 10 µM.

For the compound `COc1cc(OC)c(C)c(N(Cc2ncc[nH]2)c2ccc3ncc(-c4cnn(C)c4)nc3n2)c1` [Compound 273], the “BAF3-FGFR3 (MIN IL3) pIC50” value in assay [1] is listed as roughly 8.60. Further, the “BAF3-FGFR1 (MIN IL3) pIC50” value in assay [2] turned out to be 8.44. For the same compound, the IC50 in assay [3] was greater than 10 µM.

Take `COc1cc(OC)cc(N(CC(C)(C)O)c2ccc3ncc(-c4cnn(C)c4)nc3n2)c1` [Compound 276]: in assay [1], the “BAF3-FGFR3 (MIN IL3) pIC50” value is recorded as 6.41. Moreover, the “BAF3-FGFR1 (MIN IL3) pIC50” value in assay [2] is reported as 6.28. For the same compound, in assay [3], the IC50 was greater than 10 µM.

Consider `COc1cc(/N=c2\ccc3ncc(-c4cnn(C)c4)nc3n2CC(C)(C)O)cc(OC)c1` [Compound 277], for which the “BAF3-FGFR3 (MIN IL3) pIC50” value in assay [1] was 7.16. Also, the “BAF3-FGFR1 (MIN IL3) pIC50” value in assay [2] is 6.91. Besides, in assay [3], the IC50 was greater than 10 µM.

`COc1cc(OC)c(F)c(N(CC(C)(C)O)c2ccc3ncc(-c4cnn(C)c4)nc3n2)c1F` [Compound 278]: the “BAF3-FGFR3 (MIN IL3) pIC50” value in assay [1] is on record as 7.73. Besides, the “BAF3-FGFR1 (MIN IL3) pIC50” value in assay [2] turned out to be 7.45. Besides, in assay [3], the IC50 was greater than 10 µM.

With `COc1cc(OC)cc(N(c2ccc3ncc(-c4cnn(C)c4)nc3n2)C(C)c2ncc[nH]2)c1` (stereo not drawn) [Compound 280], in assay [1], the “BAF3-FGFR3 (MIN IL3) pIC50” value was roughly 8.63. In assay [2], the “BAF3-FGFR1 (MIN IL3) pIC50” value was 8.64. For the same compound, in assay [3], the IC50 is greater than 10 µM.

On to `COc1cc(OC)c(F)c(N(CC2CCC(=O)N2)c2ccc3ncc(-c4cnn(CC(C)(C)O)c4)nc3n2)c1` (stereo not drawn) [Compound 285], for which, in assay [1], the “BAF3-FGFR3 (MIN IL3) pIC50” value came to 6.84. Besides, the “BAF3-FGFR1 (MIN IL3) pIC50” value in assay [2] is given as 6.38. In addition, the IC50 in assay [3] was greater than 10 µM.

With `COc1cc(/N=c2\ccc3ncc(-c4cnn(CC(C)(C)O)c4)nc3n2CC2CCC(=O)N2)c(F)c(OC)c1` (stereo not drawn) [Compound 286], in assay [1], the “BAF3-FGFR3 (MIN IL3) pIC50” value stood at 7.66. For the same compound, the “BAF3-FGFR1 (MIN IL3) pIC50” value in assay [2] was found to be 7.07. Moreover, the IC50 in assay [3] was greater than 10 µM.

Turning to `COc1cc(OC)c(F)c(N(c2ccc3ncc(-c4cnn(C)c4)nc3n2)C(C)c2ncc[nH]2)c1` (stereo not drawn) [Compound 287], in assay [1], the “BAF3-FGFR3 (MIN IL3) pIC50” value is roughly 8.54. The “BAF3-FGFR1 (MIN IL3) pIC50” value in assay [2] is recorded as 8.87. Moreover, the IC50 in assay [3] was greater than 10 µM.

`COc1cc(OC)cc(N(CCNC2COC2)c2ccc3ncc(-c4cnn(C)c4)nc3n2)c1` [Compound 290]: the “BAF3-FGFR3 (MIN IL3) pIC50” value in assay [1] is listed as 7.06. Also, the “BAF3-FGFR1 (MIN IL3) pIC50” value in assay [2] is listed as 7.09. For the same compound, the IC50 in assay [3] was greater than 10 µM.

Turning to `COc1cc(OC)c(F)c(N(Cc2ncc[nH]2)c2ccc3ncc(N4CCOCC4)nc3n2)c1` [Compound 291], the “BAF3-FGFR3 (MIN IL3) pIC50” value in assay [1] turned out to be 7.73. Besides, the “BAF3-FGFR1 (MIN IL3) pIC50” value in assay [2] is 8.03. For the same compound, the IC50 in assay [3] is greater than 10 µM.

Regarding `COc1cc(OC)cc(N(Cc2ncc[nH]2)c2ccc3ncc(N4CCOCC4)nc3n2)c1` [Compound 293], the “BAF3-FGFR3 (MIN IL3) pIC50” value in assay [1] is 7.59. Besides, the “BAF3-FGFR1 (MIN IL3) pIC50” value in assay [2] is on record as 7.59. The IC50 in assay [3] was greater than 10 µM.
